Laboratory results: paper PMC5750218, “Protein-inspired antibiotics active against vancomycin- and daptomycin-resistant bacteria” (Nature Communications, 2018)

How the values were obtained:
[1] = test system: S. aureus ATCC 43300 (MRSA); test: Time kill assay; format: cell-based, Staphylococcus aureus
Protocol: S. aureus ATCC® 43300™ (MRSA) was cultured in MHB (BactoLaboratories, Cat. No 211443) at 37 °C overnight. A sample was then diluted 40-fold in fresh MHB and incubated at 37 °C for 2–3 h until the culture reached early exponential phase (OD600 of 0.2–0.4). Vancapticin 24 ([…] and 0.003 µg mL^−1) and vancomycin (4, 2, 1 and 0.5 µg mL^−1) were serially diluted twofold across the wells of 96-well microtitre plates (NBS, Corning 3641) with a final volume of 50 µL, then combined with 50 µL of bacterial inoculum (giving a final cell density of 5 × 10^5 CFU mL^−1) and incubated at 37 °C. Serial dilutions of the cultures were plated at each desired time point, using a multichannel pipette as follows: in row A of a 96-well plate, 50 µL of sterile activated charcoal suspension (25 mg mL^−1) was added, while 90 µL of 0.9% sterile saline per well was added to the other rows. At selected time-points, 50 µL aliquots were transferred from the time-kill assay plate to the first row containing the charcoal suspension and mixed well. […] The colonies in each spot were counted and used to calculate the number of viable CFU mL^−1 remaining in the original culture by considering the dilution factors (1:2 in charcoal, the serial dilution factor and the volume of the aliquot spotted).

MRSA (Strain ATCC 43300) = test: MRSA thigh infection in vivo efficacy model (neutropenic mice); set-up: species or system Staphylococcus aureus; settings: single 25 mg kg^−1 SC dose
Protocol: Thighs were then removed, weighed and homogenised in a fixed volume of saline.
Untreated animals received equivalent volume of saline (Baxter). […] For each mouse, both thighs were collected aseptically by cutting the leg at the hip and knee, placed in 10 mL of cold sterile saline and the individual weight of each thigh recorded.

## CN[C@H](CC(C)C)C(=O)N[C@H]1C(=O)N[C@@H](CC(N)=O)C(=O)N[C@H]2C(=O)N[C@H]3C(=O)N[C@H](C(=O)N[C@H](C(=O)O)c4cc(O)cc(O)c4-c4cc3ccc4O)[C@H](O)c3ccc(c(Cl)c3)Oc3cc2cc(c3O[C@@H]2O[C@H](CO)[C@@H](O)[C@H](O)[C@H]2O[C@H]2C[C@](C)(N)[C@H](O)[C@H](C)O2)Oc2ccc(cc2Cl)[C@H]1O [Compound 1, Vancomycin]
[1]
  Bactericidal profile in time kill assay: slowly bactericidal
MRSA (Strain ATCC 43300)
  Efficacy in thigh infection model: almost inactive
